{"source": "patent US11976055B1", "about": "“2-(1-(3-(dimethylamino)propyl)-4,5-diphenyl-1H-imidazol-2-yl)pyridin-3-ol as an antitumor and antimicrobial compound” (KING FAISAL UNIVERSITY, priority 2023, dated 2024)", "key": {"[1]": {"system": "human osteosarcoma cells (MG-63)", "assay": "Cytotoxicity by SRB assay, MG-63 cells", "assay_type": "cell-based", "conditions": "osteosarcoma (MG-63) cells, 0.01 μM to 100 μM, 72 h", "experimental": "(§1) The human prostate cancer cells (PC3) and human osteosarcoma cells (MG-63) were obtained from Nawah Scientific Inc. (Mokatam, Cairo, Egypt) and cultured in DMEM (Dulbecco's modified eagle's medium), Gibco, USA, supplemented with fetal bovine serum (FBS) at a concentration of 10% and 100 U/mL of penicillin and streptomycin (PS). The Cells were incubated at 37° C. in a humidified environment that contained 5% CO2. Cells were seeded in 96-well plates as aliquots of 100 μL cell suspension and incubated in a complete media for 24 h. afterward, cells were treated with 2-(1-(3-(Dimethylamino)propyl)-4,5-diphenyl-1H-imidazol-2-yl)pyridin-3-ol at diverse concentrations ranging from 0.01 μM to 100 μM for 72 h. […] Then, 150 μL of Tris pH 10.5 (10 mM) was added, and the absorbance was measured at 540 nm using a BMG LABTECH®-FLUOstar Omega microplate reader (Ortenberg, Germany). Half maximal inhibitory concentrations (IC50) values were calculated for each experiment using GraphPad Prism 6 software. […] The inhibition was calculated using the following equation: Inhibition %=100−Average Viability The anticancer activity of 2-(1-(3-(Dimethylamino)propyl)-4,5-diphenyl-1H-imidazol-2-yl)pyridin-3-ol was assessed against highly aggressive androgen-independent metastatic human prostate cancer cells (PC3) and osteosarcoma (MG-63) cells."}, "[2]": {"system": "human prostate cancer cells (PC3)", "assay": "Cytotoxicity by SRB assay, PC3 cells", "assay_type": "cell-based", "conditions": "androgen-independent metastatic human prostate cancer cells (PC3), 0.01 μM to 100 μM, 72 h", "experimental": "as §1"}}, "data": [{"molecule": "CN(C)CCCn1c(-c2ncccc2O)nc(-c2ccccc2)c1-c1ccccc1", "note": "[2-(1-(3-(Dimethylamino)propyl)-4,5-diphenyl-1H-imidazol-2-yl)pyridin-3-ol]", "values": [{"measurement": "melting point", "value": "133 to 135", "unit": "°C"}, {"measurement": "antiproliferative activity against MG-63 cells", "setting": "[1]", "value": "excellent antiproliferative activities"}, {"measurement": "antiproliferative activity against PC3 cells", "setting": "[2]", "value": "excellent antiproliferative activities"}]}]}
